# Measurements taken from patent publication US7361263B2, “Water treatment apparatus and method” (Sanyo Electric Co., Ltd., priority 2002, dated 2008).
# Counter-ions that a name gives are not always drawn. Like-named read-outs stand apart in the source and are kept apart here.
# Columns and labels:
# [1] = Mutagenicity test (umu-test); assay type: cell-based
# Procedure: The test was conducted according to the instruction manual included in the kit of “Umu-test” from Japan Immunoresearch Laboratories Co., Ltd.
# [2] = tested on: Staphylococcus aureus (staphylococcus bacteria) FDA 209P; assay: Test of antibacterial activity of epirubicin hydrochloride (MIC, small amount broth dilution); assay type: cell-based; settings: for MIC: Staphylococcus aureus, FDA209P, read-out: minimum inhibitory concentration (MIC)
# Procedure: (§1) The pharmaceutical stock solution disclosed in the standard method was replaced with the samples of the present example for testing. As the culture medium for measuring sensitivity, Cation Supplemented Mueller-Hinton Broth: CSMHB (obtained from EIKEN CHEMICAL CO., LTD.) was employed. This CSMHB was poured 90 μl each into a U-shaped bottom 96-well microplate. Samples taken 0, 2, 4 and 6 hours from initiation of electrolysis described in the above 2 were prepared. A diluted solution of respective samples was prepared in accordance with the standard method. […] The bacilli used in the present example were identical to the two types of bacillus employed in Example 1, i.e. Staphylococcus aureus (staphylococcus bacteria) FDA […] and Escherichia coli (coliform bacillus) NIHJ JC-2. […] This solution was inoculated approximately 0.005 ml in each well of the plate set forth above within 15 minutes from preparation of the solution including bacillus. A medium not containing the agent was poured into 1-2-wells as the control of the development of bacillus. Cultivation was conducted for 18-24 hours at 35° C.
# [3] = tested on: Escherichia coli (coliform bacillus) NIHJ JC-2; assay: as above; assay type: cell-based; settings: read-out: minimum inhibitory concentration (MIC)
# Procedure: as §1
# [4] = Cytotoxicity (CC50) test, WST-8; assay type: cell-based, human; settings: human; electrolyzing time 0 hours; Molt-4 cells, cultured three days
# Text: For the measurement of the number of cells, tetrazolium salt WST-8 (Cell Counting Kit-8 available as a kit) was employed as the chromophone. The basic principle of the cytotoxicity (CC50) test is set forth below. WST-8 is reduced by intracellular dehydrogenation enzyme to produce soluble formazan. Since the number of cells and the amount of generated formazan is linearly proportional, the number of cells can be readily measured by directly measuring the absorbancy of formazan at 450 nm. The specific procedure for measurement is set forth below. 180 μl of a culture medium was introduced into each of the wells in the range of rows A-D and columns 3-10 in a 96-well flat microtiter plate for diluting the agent. 240 μl of the sample taken at 0 hours from initiation of electrolysis was added to the well of row A, column 2 in the microtiter plate. 240 μl of the sample taken 2 hours from initiation of electrolysis was added to the well of row B, column 2. 240 μl of the sample taken 4 hours from initiation of electrolysis was added to the well of row C, column 2. 240 μl of the sample taken 6 hours from initiation of electrolysis was added to the well of row D, column 2. To produce respective columns of sample dilutions, samples of 60 μl each was taken from the above-described samples of 240 μl. These samples of 60 μl were sequentially added to the right side well to be sufficiently pipeted. This was conducted up to column 10. Two of U-bottom 96-well microtiter plates for cultivation were prepared, and 200 μl of PBS was applied to all the side-most wells. 100 μl of culture medium was introduced into each of the wells of rows B-G, columns 2-9. 150 μl of culture medium was introduced into the wells of columns 10 and 11. Then, 50 μl of cell suspension solution prepared to 5×10^6 cell/ml was introduced into each of the wells of rows B-G, columns 2-9 and column 11. The wells of column 10 were absent of cells. […] Then, the O.D. was measured at 450 nm and 620 nm using a microplate reader.
structure (smiles),measurement,setting,value
COc1cccc2c1C(=O)c1c(O)c3c(c(O)c1C2=O)C[C@@](O)(C(=O)CO)C[C@@H]3O[C@H]1C[C@H](N)[C@@H](O)[C@H](C)O1 [epirubicin hydrochloride],concentration of the tube showing the mutagenicity induction level (fifth tube),[1]; 0 hours from initiation of electrolysis,24.7 μ/ml
same,umu-test absorbancy of the first tube (O.D.620 nm),"[1]; at all of 0, 2, 4 and 6 hours from initiation of electrolysis",exceeded 0.2
same,umu-test result (positivity / negativity),"[1]; at all of 0, 2, 4 and 6 hours from initiation of electrolysis, cut off value approximately 0.18",positivity
same,mutagenicity after the electrolytic process relative to before,"[1]; lines diluted by three times, 1/3^4",1/81
same,MIC,[2]; electrolyzing time 0 hours,1.56 µg/mL
same,MIC,[2]; electrolyzing time 2 hours,25 µg/mL
same,MIC,[2]; electrolyzing time 4 hours,> 200 µg/mL
same,MIC,[2]; electrolyzing time 6 hours,> 200 µg/mL
same,relative MIC value (MIC at 0 hour set as 1),[2]; electrolyzing time 0 hours,1
same,relative MIC value (MIC at 0 hour set as 1),[2]; electrolyzing time 2 hours,1/16
same,MIC,"[3]; NIHJJC2, electrolyzing time 0 hours",> 200 µg/mL
same,MIC,"[3]; NIHJJC2, electrolyzing time 2 hours",> 200 µg/mL
same,MIC,"[3]; NIHJJC2, electrolyzing time 4 hours",> 200 µg/mL
same,MIC,"[3]; NIHJJC2, electrolyzing time 6 hours",> 200 µg/mL
same,CC50 at 3 days,[4],0.066 µg/mL
